Entries after “also recorded” stand apart in the source; their conditions may differ. One block for each compound: values may come before it.
Assays:
osteoclast precursors = settings: RANK-L and CSF-1 dependent manner; ref Investigator's Brochure, 14; cited from earlier work
[1] = pexidartinib plasma pharmacokinetics, cycle 1 day 15; format: in vivo, human; settings: day 15, steady state
CD14dim/CD16+ monocytes = experiment: blood CD14dim/CD16+ monocyte levels; format: in vivo, human; settings: doses as low as 800 mg daily
mammary carcinoma = settings: mouse model of mammary carcinoma, cited from earlier work
[2] = test system: patients with advanced solid tumors; experiment: phase Ib dose escalation 3+3: DLT, MTD, RP2D; format: in vivo, human
[3] = test system: patients with advanced solid tumors; experiment: exposure, dosing compliance and actions taken with study drug; format: in vivo, human
CSF-1R = settings: read-out: IC50 CSF-1R; ref Investigator's Brochure, 14; cited from earlier work
PVNS/TGCT = settings: 1000 mg daily; cited from earlier work

SMILES: FC(F)(F)c1ccc(CNc2ccc(Cc3c[nH]c4ncc(Cl)cc34)cn2)cn1 [pexidartinib]
differentiation of osteoclast precursors (osteoclast precursors): inhibit differentiation
reduction of CD14dim/CD16+ monocytes in the peripheral blood (CD14dim/CD16+ monocytes): near complete reduction
survival of study animals (mammary carcinoma; following chemotherapy): improved survival
tumor growth (mammary carcinoma; following chemotherapy): slower tumor growth
TAM recruitment following chemotherapy (mammary carcinoma): abrogate TAM recruitment
maximum tolerated dose ([2]; pexidartinib up to 1600 mg/day with weekly paclitaxel): no maximum tolerated dose was achieved; also recorded: No maximum tolerated dose was determined; also recorded: No maximum tolerated dose was reached
Median PFS (PVNS/TGCT): not reached

patients with paclitaxel dose reductions ([3]; Eight patients): 15%
patients with paclitaxel temporarily withheld ([3]; in vivo): 39%
SMILES: CC(=O)O[C@H]1C(=O)[C@@]2(C)[C@H]([C@H](OC(=O)c3ccccc3)[C@]3(O)C[C@H](OC(=O)[C@H](O)[C@@H](NC(=O)c4ccccc4)c4ccccc4)C(C)=C1C3(C)C)[C@]1(OC(C)=O)CO[C@@H]1C[C@@H]2O [paclitaxel, reference compound]
omitted paclitaxel doses with AEs as reason ([3]; in vivo): 54%

From PMC6589951 (Therapeutic Advances in Medical Oncology, 2019)
